From patent US7994163B2, “6-substituted-2,3,4,5-tetrahydro-1H-benzo[d]azepines as 5-HT2C receptor agonists” (Eli Lilly and Company, priority 2005, dated 2011)
Structures can show the parent of a compound that is named as a salt.

Tests used:
[1] = tested on: Wistar rats; conditions: general statement on standards; cited from earlier work
[2] = tested on: male NIH Swiss mice; assay: Marble burying assay (with rotorod); type: in vivo; conditions: with rotorod performance
Description: House experimentally-naïve male, NIH Swiss mice (Harlan Sprague-Dawley, Indianapolis, Ind.) weighing between 28-35 g in groups of 12 for at least three days prior to testing in a vivarium with 12 h light and dark cycles. Conduct experiments during the light cycle in a dimly lit experimental testing room. Dose mice with vehicle or test compound and, after a specified pretreatment interval (generally 30 min.), place each mouse individually on a rotorod (Ugo Basile 7650) operating at a speed of 6 revolutions/min. and observe for falling. After 2 min. on the rotorod, place the mice individually in a 17×28×12 cm high plastic tub with 5 mm sawdust shavings on the floor that are covered with 20 blue marbles (1.5 cm diameter) placed in the center. After 30 min., count the number of marbles buried (⅔ covered with sawdust). Assess the test compound's effect on marble burying with Dunnett's test and the effect on rotorod performance by Fisher's exact test.
Clinically effective standard compounds suppress marble burying at doses that are devoid of motor-impairing effects as measured on the rotorod. The in vivo efficacy of 5HT2C compounds at the 5HT2C receptor is confirmed by the prevention of effects of the 5HT2C agonists on marble burying by co-administration of the 5HT2C receptor antagonist, 6-chloro-5-methyl-N-{2-[(2-methylpyridin-3-yl-oxy)pyridin-5-yl]aminocarbonyl}-2,3-dihydroindole.

[3] = tested on: male NIH Swiss mice; assay: Nestlet shredding; type: in vivo; conditions: with motor effects (rotorod test)
Text: Mice naturally will construct nests of material available in their living environment. Since this behavior is obsessive in nature, it has been used to model OCD (Xia Li, Denise Morrow and Jeffrey M. Witkin, “Decreases in nestlet shredding of mice by serotonin uptake inhibitors: comparison with marble burying”, Psychopharmacology, submitted Jul. 14, 2003). House experimentally-naïve male, NIH Swiss mice (Harlan Sprague-Dawley, Indianapolis, Ind.) weighing between 28-35 g in groups of 12 for at least three days prior to testing in a vivarium with a 12 h light/dark cycle. Conduct experiments during the light cycle in an experimental room with normal overhead fluorescent lighting. Dose mice with vehicle or test compound and after a specified pretreatment interval (generally 30 min.), place the mice individually in a 17×28×12 cm high plastic tub with about 5 mm sawdust shavings on the floor along with a pre-weighed multi-ply gauze pad (51 mm square). After 30 min., weigh the remainder of the gauze pad not removed by the mouse. Determine the weight of the gauze used for nestlet construction by subtraction. Compare the results for test compound treated mice to the results for vehicle control treated mice with Dunnett's test.
Clinically effective OCD treatment standard compounds suppress nestlet shredding at doses that are devoid of motor-impairing effects as measured by the rotorod test. […]

[4] = tested on: Wistar rats; assay: Schedule-induced polydipsia; conditions: rat, in vivo
Description: Maintain Wistar rats on a food restricted diet (to maintain 85% free feeding weight), but with free access to water. Train the rats in a behavioral testing chamber to press a lever to receive a food pellet under a fixed interval schedule, such that the rats are rewarded with a 45 mg food pellet the first time they press a lever after a 120 second interval has elapsed. The fixed interval is then reset to 120 seconds and the process repeated. Thus, during a 90 min. test session, the rats can earn a maximum of 45 pellets. The behavioral chamber is also equipped with a water bottle that is weighed before and after the session to determine the amount of water consumed.
Administer test compounds on Tuesdays and Fridays. Determine control day performances on Thursdays. Administer compounds either orally at 60 min. before the beginning of a test session, or subcutaneously at 20 min. before the beginning of a test session. Compare the rates of lever pressing and water consumption for each animal's performance during sessions after test compound treatment with that animal's performance during control sessions, expressed as a percent of the control rate. Average the individual percent of control rates for each dose and calculate the standard error of the mean. […]

## Clc1ccc2c(c1CSc1ncc[nH]1)CCNCC2 (as salt: phosphate) (hydrate or solvate)
other
  melting point: 243 to 245 °C

## CN(C)CCCN1c2ccccc2CCc2ccc(Cl)cc21 [chlomipramine]
[1]
  schedule-induced polydipsia, clinically effective OCD treatment standard compounds: suppress schedule-induced polydipsia without producing notable changes in motor patterns, food intake, or behavior the following day

## CN(C)CCCN1c2ccccc2Sc2ccc(Cl)cc21 [chlorpromazine]
[2]
  marble burying behavior: decrease marble burying only at doses that also disrupt rotorod performance

## C[C@H](N)Cc1ccccc1 [d-amphetamine]
[3]
  nestlet shredding: decreases nestlet shredding only at doses that produce motoric side effects
[4]
  Effect of 5-HT2C antagonist co-administration on suppression of polydipsia: not prevented by the 5HT2C receptor antagonist
  schedule-induced polydipsia (excessive drinking): decreases excessive drinking only at behaviorally stimulating doses

## CNCCC(Oc1ccc(C(F)(F)F)cc1)c1ccccc1 (stereo not shown) [fluoxetine]
[1]
  schedule-induced polydipsia, clinically effective OCD treatment standard compounds: suppress schedule-induced polydipsia without producing notable changes in motor patterns, food intake, or behavior the following day
